# In patent US10017580B2, “Humanized anti-Tn-MUC1 antibodies and their conjugates” (ADC THERAPEUTICS S.A., priority 2014, dated 2018):
# Legend:
# [1] = tested on: K562 human chronic myeloid leukaemia cells; experiment: K562 assay (MTT cytotoxicity of released compounds); assay type: cell-based; details: drug incubation 1 hour or 96 hours (not specified which)
# Description: K562 human chronic myeloid leukaemia cells were maintained in RPM1 1640 medium supplemented with 10% fetal calf serum and 2 mM glutamine at 37° C. in a humidified atmosphere containing 5% CO2 and were incubated with a specified dose of drug for 1 hour or 96 hours at 37° C. in the dark. The incubation was terminated by centrifugation (5 min, 300 g) and the cells were washed once with drug-free medium. Following the appropriate drug treatment, the cells were transferred to 96-well microtiter plates (10^4 cells per well, 8 wells per sample). Plates were then kept in the dark at 37° C. in a humidified atmosphere containing 5% CO2. The assay is based on the ability of viable cells to reduce a yellow soluble tetrazolium salt, 3-(4,5-dimethylthiazol-2-yl)-2,5-diphenyl-2H-tetrazolium bromide (MTT, Aldrich-Sigma), to an insoluble purple formazan precipitate. Following incubation of the plates for 4 days (to allow control cells to increase in number by approximately 10 fold), 20 μL of MTT solution (5 mg/mL in phosphate-buffered saline) was added to each well and the plates further incubated for 5 h. The plates were then centrifuged for 5 min at 300 g and the bulk of the medium pipetted from the cell pellet leaving 10-20 μL per well. […] The optical density was then read at a wavelength of 550 nm on a Titertek Multiscan ELISA plate reader, and a dose-response curve was constructed. […]
# [2] = molecular target: Tn-MUC1 (16TR-MUC1-Tn); experiment: Tn-MUC1 binding ELISA (protocol 4); parameters: species or system human; details: ELISA on 16TR-MUC1-Tn coated plate
# Sequence of Tn-MUC1 (16TR-MUC1-Tn) (P15941 141-460 limits assumed): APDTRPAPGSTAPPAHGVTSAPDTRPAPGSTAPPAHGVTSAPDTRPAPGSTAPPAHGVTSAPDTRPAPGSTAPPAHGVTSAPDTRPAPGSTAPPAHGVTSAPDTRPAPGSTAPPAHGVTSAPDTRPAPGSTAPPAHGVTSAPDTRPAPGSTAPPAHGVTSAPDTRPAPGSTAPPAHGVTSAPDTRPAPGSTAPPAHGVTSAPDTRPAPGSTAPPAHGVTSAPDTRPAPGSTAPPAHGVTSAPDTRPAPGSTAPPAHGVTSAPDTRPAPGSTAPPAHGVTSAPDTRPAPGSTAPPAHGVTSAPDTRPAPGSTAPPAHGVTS
# [3] = tested on: ZR-75-1 cell line, which expresses Tn-MUC1; experiment: ZR-75-1 cell binding assay by flow cytometry (protocol 6); details: flow cytometry, live cells
# Description: Protocol 6: ZR-75-1 Cell Binding Assay by Flow Cytometry Materials • Wash solution: PBS 0.1% (w/v) sodium azide • Binding buffer: PBS, 10% normal goat serum, 0.1% (w/v) sodium azide) • 96 well U-well microplate Protocol
# Exponentially growing cells are suspended by incubation with cell dissociation buffer enzyme-free, Hanks-based (Gibco 13150-016) following the manufacturer's instructions. A cell count/viability is done on a dilution of 10 ul cells+Trypan Blue, 10 ul, with a haemocytomer. The suspension is centrifuged and the cell pellet re-suspended in binding buffer at 3×10^6 per ml. If significant levels of aggregates are present in the cell count, the suspension is filtered to remove aggregates. The cell suspension is dispensed (50 ul/well) in 96 well U-bottom plates and cooled on ice for 10 minutes. Primary antibody (50 ul/well) diluted in binding buffer (typically 1 ug per ml or less) is added to each well and incubated at 4° C. for 1 hour. […] Cells are then re-suspended in PBS if reading immediately or fixed in 100 ul of paraformaldehyde (2% (w/v) in PBS) and analysed with by flow cytometer (Accuri C6), gating on live cells which have a lower Fixable Viability Dye MFI compared to dead cells.
# IgG binding potency to Tn-MUC1 was measured as per protocol 4 and binding to the ZR-75-1 cell line, which expresses Tn-MUC1, was measured as per protocol 6.
# [4] = Thermal denaturation assay (protocol 5); assay type: physicochemical; details: 50% inactivation temperature, 10 minutes heating, read by antigen-binding ELISA
Tn-MUC1 binding EC50 [2] [µg/mL],ZR-75-1 cell binding EC50 [3] [µg/mL],Molecule,IC50 [1] [nM],Tm [4] [°C]
–,–,COc1cc2c(cc1OCCCOc1cc3c(cc1OC)C(=O)N1C=C(C)C[C@H]1C=N3)N=C[C@@H]1CC(C)=CN1C2=O [Compound RelE],0.425,–
0.0311,0.02834,Mouse 5E5: anti-Tn MUC 1 antibody comprising a VH domain according to SEQ ID NO. 1 and a VL domain according to SEQ ID NO. 30 [reference compound],–,69.97
